Laboratory results as given in US10385108B2, “Peptide analogs of alpha-melanocyte stimulating hormone” (Genzyme Corporation, priority 2008, dated 2019).
Read-outs that look alike come from different tables or passages of the source. Where a SMILES comes first, the peptide text is derived from it. [ ]: non-standard residue; d: D form. dCha = N[C@H](CC1CCCCC1)C(=O)O

Key:
[1] = system: C57BL/6 mice; assay: MOG35-55 induced EAE model; type: in vivo; details: 2 mg/kg
[2] = biological target: T1, MC1R (Homo sapiens, UniProt Q01726); parameters: purchased Perkin Elmer, Boston Mass; host or cells: HEK293 transfected cell lines (membrane preparations); details: value quoted, not from Table 1; read-out: Ki MC1R (reported); cited from earlier work
[3] = system: B16-F1 murine melanoma cells; assay: Intracellular cAMP in B16-F1 melanoma cells; type: cell-based; details: for EC50: B16-F1 cells, 10^-4-10^-11 M, 30 min, IBMX
Protocol: B16-F1 (melanoma cell line) cells from American Type Culture Collection (Manassas, Va.) were seeded into flat bottom 96 well plates at 5×10^4/well and cultured overnight in DMEM (Cambrex, Walkersville, Md.) supplemented with 2 mM glutamine, antibiotics (100 U/ml penicillin and 100 […]) and 10% heat-inactivated fetal bovine serum (Invitrogen, Grand Island, N.Y.). […] Cells were lysed and intracellular cAMP levels were measured by an enzyme immunoassay kit (Amersham Biosciences, Piscataway, N.J.). Forskolin (Sigma, St. Louis, Mo.) at 100 μM served as positive controls.
cAMP levels in B16-F1 melanoma cells after treatment with native α-MSH, RI α-MSH, or a scrambled control peptide were examined. The […] melanoma cell line expresses a high number of MCR1 receptors (3000-4000 receptors/cell) compared with macrophages cell lines which express only 100-200 receptors/cell. Therefore we selected to examine the effect of the RI α-MSH treatment on the melanoma cell line. Murine melanoma B16-F1 cells were treated with native α-MSH, RI α-MSH, or control scrambled peptide at concentrations 1 pg/ml-1 μg/ml. After 30 min, cells were lysed and intracellular cAMP was measured by an enzyme immunoassay. […] However, a higher concentration of RI α-MSH (100 ng/ml) was necessary to increase cAMP compared with native α-MSH which increased cAMP at a 10 pg/ml concentration. This difference in concentration of peptide necessary to increase cAMP levels may be the result of the binding affinity to the MCR1 receptor.
Murine melanoma B16-F1 cells were treated with native α-MSH, RI α-MSH, scrambled peptide control, KPV, or alanine substituted peptides of RI α-MSH at 1 μg/ml (FIG. 7B). […] Peptides designated 810, 811, and 812 have alanine substitutions in the central core tetrapeptide sequence (D-Trp D-Arg D-Phe D-His region; AA 5-8) (variant disclosed in SEQ ID NO:2) proposed to be involved in native α-MSH binding to the melanocortin receptor and its biological activity. […] The residues in the core tetrapeptide (wrfh) (variant disclosed in SEQ ID NO:2) and to a lesser extent, the methionine 4 of RI-MSH are critical for binding to MC1R.
B16-F1 murine melanoma cells were cultured into 96 well plates 5×10^4 cells/well overnight in media with L-glutamine and pen/strep and FBS. Media was removed and new media with IBMX was added to the cells for 1 hr. Cells were then treated with RI α-MSH, or RI α-MSH peptide analogs (890, 891, 892, 893, 894 or 895). Cells were lysed after 30 min using a cAMP assay kit and supernatant were used in the assay. Forskolin at 10 μM served as positive controls.
Intracellular cAMP was measured using a cAMP competition Assay Kit (Amersham Biosciences). All cell lysate samples were diluted 1:100 for analysis.
Murine melanoma B16-F1 cells were treated with RI α-MSH, or RI α-MSH analogs (869, 872, 880, 878, 886 and 890-895) at a concentration range of 10^−4-10^−11 M. cAMP levels from cells treated with RI α-MSH, or RI α-MSH analogs. […] See FIG. 22 for graphical data and Table 2 for EC50 data.

[4] = biological target: T1, MC1R; assay: Competitive binding with 125I-NDP-MSH, HEK293 membrane preparations, MC1R; details: for Ki: Ki MC1R, competition with 125I-NDP-MSH;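 for all read-outs here: Read-out: receptor-bound radioligand retained by filtration and counted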
Protocol: (§1) Binding analysis was done by Cerep laboratories (Paris, France) with coded samples.
(§2) The mixtures were filtered through 96-well GFC filters (Millipore, Billerica, Mass.), washed 3 times with binding buffer without BSA, dried and counted.
(§3) A competitive binding assay using a MCR panel including MCR 1, 3, 4, and 5 was performed.

[5] = biological target: MC3R (Homo sapiens, UniProt P41968); assay: Competitive binding with 125I-NDP-MSH, HEK293 membrane preparations, MC3R
Protocol: as §1, §2, §3

[6] = biological target: MC4R (Homo sapiens, UniProt P32245); assay: Competitive binding with 125I-NDP-MSH, HEK293 membrane preparations, MC4R
Protocol: as §1, §2, §3

[7] = biological target: MC5R (Homo sapiens, UniProt P33032); assay: Competitive binding with 125I-NDP-MSH, HEK293 membrane preparations, MC5R; details: Ki MC5R, competition with 125I-NDP-MSH; cells noted in μM
Protocol: as §1, §2, §3

[8] = system: C57BL/6 mice; assay: LPS inflammation mouse model, serum cytokines; type: in vivo; details: i.p. 30 min after LPS, serum at 2 h
Protocol: Male C57BL/6 mice were challenged with LPS (1 ug/mouse), i.p. After 30 min mice were treated with dexamethasone (2 mg/kg; Sigma), RI-α-MSH analog 891, or RI-α-MSH. At 2 hrs after LPS challenge, mice were bled for serum. Cytokine analysis was measured by flow cytometry with a cytometric bead array kit (BD Biosciences).
C57BL/6 mice were injected with LPS, i.p. and 30 minutes later native α-MSH or RI α-MSH analog 891 was administered i.p. at doses ranging from 5 mg/kg to 0.156 mg/kg. RI α-MSH analog 891 is an analog of RI α-MSH in which d-Cha and hsiiss D-amino acids were added to the core peptide sequence. […] MCP-1 was not affected by native α-MSH treatment (FIG. 16B).

[9] = biological target: mouse MC1R (Mus musculus, UniProt Q01727); assay: Binding affinity to mouse MC1R (data not shown)
[10] = peptides 5 to 0.156 mg/kg, dexamethasone 2 mg/kg

Sequence of MC3R (P41968 whole entry): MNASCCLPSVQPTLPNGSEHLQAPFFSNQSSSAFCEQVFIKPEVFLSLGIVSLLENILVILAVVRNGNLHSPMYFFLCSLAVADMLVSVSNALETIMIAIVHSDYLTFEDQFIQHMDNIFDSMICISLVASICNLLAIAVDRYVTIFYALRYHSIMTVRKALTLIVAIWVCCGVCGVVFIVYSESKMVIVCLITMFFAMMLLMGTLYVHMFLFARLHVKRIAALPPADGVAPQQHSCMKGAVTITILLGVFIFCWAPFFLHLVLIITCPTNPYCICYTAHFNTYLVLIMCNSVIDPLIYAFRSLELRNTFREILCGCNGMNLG
Sequence of MC4R (P32245 whole entry): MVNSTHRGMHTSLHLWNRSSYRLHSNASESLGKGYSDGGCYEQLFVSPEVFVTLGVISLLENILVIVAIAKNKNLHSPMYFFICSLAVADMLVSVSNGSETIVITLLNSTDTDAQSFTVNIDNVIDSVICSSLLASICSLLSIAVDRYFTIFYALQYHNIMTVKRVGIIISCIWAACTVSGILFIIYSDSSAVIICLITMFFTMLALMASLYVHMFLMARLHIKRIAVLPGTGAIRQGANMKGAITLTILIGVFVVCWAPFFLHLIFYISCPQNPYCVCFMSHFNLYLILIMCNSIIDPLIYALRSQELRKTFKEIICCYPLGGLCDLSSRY
Sequence of MC5R (P33032 whole entry): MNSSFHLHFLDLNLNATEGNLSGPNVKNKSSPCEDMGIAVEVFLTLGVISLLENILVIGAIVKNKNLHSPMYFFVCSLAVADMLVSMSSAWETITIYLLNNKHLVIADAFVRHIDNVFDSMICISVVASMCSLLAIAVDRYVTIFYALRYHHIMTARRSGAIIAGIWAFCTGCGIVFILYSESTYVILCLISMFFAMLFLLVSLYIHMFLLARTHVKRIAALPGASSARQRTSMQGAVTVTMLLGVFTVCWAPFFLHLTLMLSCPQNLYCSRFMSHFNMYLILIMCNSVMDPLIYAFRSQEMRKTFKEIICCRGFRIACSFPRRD
T1 sequence (Q01726 whole entry): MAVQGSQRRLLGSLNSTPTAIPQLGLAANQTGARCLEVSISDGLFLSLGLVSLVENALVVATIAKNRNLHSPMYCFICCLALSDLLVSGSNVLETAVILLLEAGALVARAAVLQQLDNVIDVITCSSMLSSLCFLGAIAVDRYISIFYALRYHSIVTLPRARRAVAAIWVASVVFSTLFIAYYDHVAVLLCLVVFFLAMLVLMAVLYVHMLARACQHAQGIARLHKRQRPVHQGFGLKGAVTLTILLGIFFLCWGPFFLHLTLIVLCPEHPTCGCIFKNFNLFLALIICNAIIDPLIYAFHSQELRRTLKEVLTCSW
Sequence of mouse MC1R (Q01727 whole entry): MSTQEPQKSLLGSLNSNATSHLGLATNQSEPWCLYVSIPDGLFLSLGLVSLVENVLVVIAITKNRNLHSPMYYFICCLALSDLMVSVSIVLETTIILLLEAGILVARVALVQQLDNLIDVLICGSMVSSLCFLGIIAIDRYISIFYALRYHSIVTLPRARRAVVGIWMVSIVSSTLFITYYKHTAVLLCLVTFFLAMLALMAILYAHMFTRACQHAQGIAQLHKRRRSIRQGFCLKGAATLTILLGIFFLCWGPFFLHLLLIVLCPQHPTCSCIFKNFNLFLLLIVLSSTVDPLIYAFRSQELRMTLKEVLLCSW

## C[C@@H]1C[C@H]2[C@@H]3CCC4=CC(=O)C=C[C@]4(C)[C@@]3(F)[C@@H](O)C[C@]2(C)[C@@]1(O)C(=O)CO [Dexamethasone, dexamethasone, reference compound]
[1]
  maximum percent incidence of disease: 40%

## NC(=O)[C@H](Cc1c[nH]c2ccccc12)NC(=O)[C@H](CCCN=C(N)N)NC(=O)[C@@H](Cc1ccccc1)NC(=O)[C@H](Cc1cnc[nH]1)NC(=O)CCCc1ccccc1 [compound 819, (Ph(CH2)3CO) HfRW]
[2]
  Ki: 6 pM

## CSCC[C@@H](NC(=O)[C@@H](CCC(=O)O)NC(=O)[C@@H](Cc1c[nH]cn1)NC(=O)[C@@H](CC1CCCCC1)NC(=O)[C@@H](CCCNC(=N)N)NC(=O)[C@@H](Cc1c[nH]c2ccccc12)NC(=O)CNC(=O)[C@@H](CCCCN)NC(=O)[C@H]1CCCN1C(=O)[C@H](NC(C)=O)C(C)C)C(=O)N[C@H](CO)C(=O)N[C@H](Cc1ccc(O)cc1)C(=O)N[C@H](CO)C(N)=O [compound 869, vpkGwr(D-Cha)hemsys]
[3]
  EC50: 0.014 µM
[4]
  Ki: 0.0022 µM
[5]
  Ki: > 30 µM
[6]
  Ki: > 10 µM
[7]
  Ki: ~25 µM

## CCCCSCC[C@@H](NC(=O)[C@@H](CCC(=O)O)NC(=O)[C@@H](Cc1c[nH]cn1)NC(=O)[C@@H](Cc1ccccc1)NC(=O)[C@@H](CCCNC(=N)N)NC(=O)[C@@H](Cc1c[nH]c2ccccc12)NC(=O)CNC(=O)[C@@H](CCCCN)NC(=O)[C@H]1CCCN1C(=O)[C@H](NC(C)=O)C(C)C)C(=O)N[C@H](CO)C(=O)N[C@H](Cc1ccc(O)cc1)C(=O)N[C@H](CO)C(N)=O [compound 878, vpkGwrfhe(D-buthionine)sys]
[4]
  Ki: 0.0023 µM
[5]
  Ki: ~40 µM
[6]
  Ki: > 30 µM
[7]
  Ki: ~30 µM

## CC[C@@H](C)[C@@H](NC(=O)[C@@H](CO)NC(=O)[C@@H](Cc1c[nH]cn1)NC(=O)[C@H](Cc1ccccc1)NC(=O)[C@@H](CCCNC(=N)N)NC(=O)[C@@H](Cc1c[nH]c2ccccc12)NC(=O)CNC(=O)[C@@H](CCCCN)NC(=O)[C@H]1CCCN1C(=O)[C@H](NC(C)=O)C(C)C)C(=O)N[C@@H](C(=O)N[C@H](CO)C(=O)N[C@H](CO)C(N)=O)[C@H](C)CC [compound 880, vpkGwrFhsiiss] (Ac-[dV][dP][dK]G[dW][dR]F[dH][dS][dI][dI][dS][dS]-NH2)
[3]
  EC50: 0.023 µM
[4]
  Ki: 0.0018 ± 0.0035 µM
[5]
  Ki: ~18 µM
[6]
  Ki: ~10 µM
[7]
  Ki: > 30 µM

## CC[C@@H](C)[C@@H](NC(=O)[C@@H](CO)NC(=O)[C@@H](Cc1c[nH]cn1)NC(=O)[C@@H](Cc1ccccc1)NC(=O)[C@@H](CCCNC(=N)N)NC(=O)[C@@H](Cc1c[nH]c2ccccc12)NC(=O)CNC(=O)[C@@H](CCCCN)NC(=O)[C@H]1CCCN1C(=O)[C@H](NC(C)=O)C(C)C)C(=O)N[C@@H](C(=O)N[C@H](CO)C(=O)N[C@H](CO)C(N)=O)[C@H](C)CC [compound 886, vpkgwrfhsiiss] (Ac-[dV][dP][dK]G[dW][dR][dF][dH][dS][dI][dI][dS][dS]-NH2)
[3]
  EC50: 0.002 µM
[4]
  Ki: 0.001 µM
[5]
  Ki: ~19 µM
[6]
  Ki: ~10 µM
[7]
  Ki: ~20 µM

## CCCCSCC[C@@H](NC(=O)[C@@H](CCC(=O)O)NC(=O)[C@@H](Cc1c[nH]cn1)NC(=O)[C@@H](CC1CCCCC1)NC(=O)[C@@H](CCCNC(=N)N)NC(=O)[C@@H](Cc1c[nH]c2ccccc12)NC(=O)CNC(=O)[C@@H](CCCCN)NC(=O)[C@H]1CCCN1C(=O)[C@H](NC(C)=O)C(C)C)C(=O)N[C@H](CO)C(=O)N[C@H](Cc1ccc(O)cc1)C(=O)N[C@H](CO)C(N)=O [compound 890, vpkGwr(D-Cha)he(d-Buthionine)sys]
[4]
  Ki: 0.0019 µM
[5]
  Ki: ~15 µM
[6]
  Ki: ~14 µM
[7]
  Ki: ~4.5 µM

## CC[C@@H](C)[C@@H](NC(=O)[C@@H](CO)NC(=O)[C@@H](Cc1c[nH]cn1)NC(=O)[C@@H](CC1CCCCC1)NC(=O)[C@@H](CCCNC(=N)N)NC(=O)[C@@H](Cc1c[nH]c2ccccc12)NC(=O)CNC(=O)[C@@H](CCCCN)NC(=O)[C@H]1CCCN1C(=O)[C@H](NC(C)=O)C(C)C)C(=O)N[C@@H](C(=O)N[C@H](CO)C(=O)N[C@H](CO)C(N)=O)[C@H](C)CC [compound 891, vpkGwr(D-Cha)hsiiss] (Ac-[dV][dP][dK]G[dW][dR][dCha][dH][dS][dI][dI][dS][dS]-NH2)
[3]
  EC50: 0.081 µM
[3]; data not shown
  potency to stimulate cAMP (in words): increased potency to stimulate cAMP
[8]; 5 to 0.156 mg/kg
  serum IL-10 vs vehicle (in words): significant decrease
[8]; [10]
  serum MCP-1 vs vehicle (in words): no affect
  serum TNF-α vs vehicle (in words): significant decrease
[9]
  binding affinity to mouse MC1R (in words): increased binding affinity
[4]
  affinity for MC1R compared with parent peptide (in words): indistinguishable from MSH
  Ki: 0.00043 ± 1e-05 µM
[5]
  Ki: ~8 µM
[6]
  Ki: ~3.2 µM
[7]
  Ki: ~2.5 µM

## CSCC[C@@H](NC(=O)[C@@H](CCC(=O)O)NC(=O)[C@@H](Cc1c[nH]cn1)NC(=O)[C@@H](Cc1ccccc1)NC(=O)[C@@H](CCCNC(=N)N)NC(=O)[C@H](Cc1c[nH]c2ccccc12)NC(=O)CNC(=O)[C@@H](CCCCN)NC(=O)[C@H]1CCCN1C(=O)[C@H](NC(C)=O)C(C)C)C(=O)N[C@H](CO)C(=O)N[C@H](Cc1ccc(O)cc1)C(=O)N[C@H](CO)C(N)=O [compound 893, vpkGWrfhemsys]
[3]
  EC50: 0.27 µM
[4]
  Ki: 0.0065 µM
[5]
  Ki: ~28 µM
[7]
  Ki: ~27 µM

## CSCC[C@@H](NC(=O)[C@@H](CCC(=O)O)NC(=O)[C@@H](Cc1c[nH]cn1)NC(=O)[C@@H](Cc1ccccc1)NC(=O)[C@H](CCCNC(=N)N)NC(=O)[C@@H](Cc1c[nH]c2ccccc12)NC(=O)CNC(=O)[C@@H](CCCCN)NC(=O)[C@H]1CCCN1C(=O)[C@H](NC(C)=O)C(C)C)C(=O)N[C@H](CO)C(=O)N[C@H](Cc1ccc(O)cc1)C(=O)N[C@H](CO)C(N)=O [compound 894, vpkGwRfhemsys]
[3]
  EC50: 212 µM
[4]
  Ki: 0.38 µM
[5]
  Ki: > 30 µM
[7]
  Ki: > 30 µM

## CSCC[C@@H](NC(=O)[C@@H](CCC(=O)O)NC(=O)[C@H](Cc1c[nH]cn1)NC(=O)[C@@H](Cc1ccccc1)NC(=O)[C@@H](CCCNC(=N)N)NC(=O)[C@@H](Cc1c[nH]c2ccccc12)NC(=O)CNC(=O)[C@@H](CCCCN)NC(=O)[C@H]1CCCN1C(=O)[C@H](NC(C)=O)C(C)C)C(=O)N[C@H](CO)C(=O)N[C@H](Cc1ccc(O)cc1)C(=O)N[C@H](CO)C(N)=O [compound 895, vpkGwrfHemsys]
[3]
  EC50: 0.3 µM
[4]
  Ki: 0.019 µM
[5]
  Ki: ~37 µM
[7]
  Ki: ~37 µM
